According to ChEMBL document CHEMBL5465560, “Selectivity Literature for EUbOPEN Chemogenomic Library” (2024):
Values belong to the compound of their own block, whether it stands above or below them.

How the values were obtained:
[1] = biological target: Cholecystokinin receptor type A (Homo sapiens) (UniProt P32238); assay: Selectivity interaction (Eurofins CEREP Diversity Profile (receptors and ion channels)) EUB0000279b CCKAR; conditions: at 10 µM
[2] = biological target: Ribosomal protein S6 kinase alpha-1 (Homo sapiens, UniProt Q15418); assay: Selectivity interaction (Upstate Kinase Profiler service (Millipore)) EUB0000056c RPS6KA1; conditions: at 1 µM
Chain of Ribosomal protein S6 kinase alpha-1 (Q15418 whole entry): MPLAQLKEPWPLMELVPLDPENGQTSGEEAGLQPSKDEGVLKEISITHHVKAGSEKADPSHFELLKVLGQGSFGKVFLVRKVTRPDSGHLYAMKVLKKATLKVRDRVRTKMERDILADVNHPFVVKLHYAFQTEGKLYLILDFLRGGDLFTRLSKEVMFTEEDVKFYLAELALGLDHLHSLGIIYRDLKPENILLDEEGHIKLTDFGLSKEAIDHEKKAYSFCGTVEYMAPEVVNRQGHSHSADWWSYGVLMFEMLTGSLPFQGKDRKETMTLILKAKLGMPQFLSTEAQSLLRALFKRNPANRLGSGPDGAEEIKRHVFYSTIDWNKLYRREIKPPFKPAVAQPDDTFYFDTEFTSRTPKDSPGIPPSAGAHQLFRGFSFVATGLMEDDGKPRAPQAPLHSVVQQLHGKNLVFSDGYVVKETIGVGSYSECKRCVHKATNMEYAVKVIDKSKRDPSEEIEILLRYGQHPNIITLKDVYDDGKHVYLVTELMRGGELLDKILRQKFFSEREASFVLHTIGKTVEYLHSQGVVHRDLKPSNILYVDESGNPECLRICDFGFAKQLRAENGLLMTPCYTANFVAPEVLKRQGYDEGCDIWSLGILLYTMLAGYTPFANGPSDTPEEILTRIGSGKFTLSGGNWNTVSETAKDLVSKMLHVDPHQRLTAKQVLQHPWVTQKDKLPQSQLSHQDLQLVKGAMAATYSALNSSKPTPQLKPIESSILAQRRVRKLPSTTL

[3] = biological target: Interleukin-1 receptor-associated kinase 1 (Homo sapiens) (UniProt P51617); assay: Selectivity interaction (Upstate Kinase Profiler service (Millipore)) EUB0000056c IRAK1; conditions: at 1 µM
[4] = biological target: Tyrosine-protein kinase JAK1 (Homo sapiens, UniProt P23458); assay: Selectivity interaction (ActivX KiNativ screen (kinase selectivity in THP-1 cell lysates)) EUB0000639a JAK1; type: subcellular; conditions: lysate, at 5 µM
[5] = biological target: Serine/threonine-protein kinase N3 (Homo sapiens) (UniProt Q6P5Z2); assay: Selectivity interaction (ProQinase) EUB0000171b PKN3
Chain of Serine/threonine-protein kinase N3 (Homo sapiens) (Q6P5Z2 whole entry, looked up): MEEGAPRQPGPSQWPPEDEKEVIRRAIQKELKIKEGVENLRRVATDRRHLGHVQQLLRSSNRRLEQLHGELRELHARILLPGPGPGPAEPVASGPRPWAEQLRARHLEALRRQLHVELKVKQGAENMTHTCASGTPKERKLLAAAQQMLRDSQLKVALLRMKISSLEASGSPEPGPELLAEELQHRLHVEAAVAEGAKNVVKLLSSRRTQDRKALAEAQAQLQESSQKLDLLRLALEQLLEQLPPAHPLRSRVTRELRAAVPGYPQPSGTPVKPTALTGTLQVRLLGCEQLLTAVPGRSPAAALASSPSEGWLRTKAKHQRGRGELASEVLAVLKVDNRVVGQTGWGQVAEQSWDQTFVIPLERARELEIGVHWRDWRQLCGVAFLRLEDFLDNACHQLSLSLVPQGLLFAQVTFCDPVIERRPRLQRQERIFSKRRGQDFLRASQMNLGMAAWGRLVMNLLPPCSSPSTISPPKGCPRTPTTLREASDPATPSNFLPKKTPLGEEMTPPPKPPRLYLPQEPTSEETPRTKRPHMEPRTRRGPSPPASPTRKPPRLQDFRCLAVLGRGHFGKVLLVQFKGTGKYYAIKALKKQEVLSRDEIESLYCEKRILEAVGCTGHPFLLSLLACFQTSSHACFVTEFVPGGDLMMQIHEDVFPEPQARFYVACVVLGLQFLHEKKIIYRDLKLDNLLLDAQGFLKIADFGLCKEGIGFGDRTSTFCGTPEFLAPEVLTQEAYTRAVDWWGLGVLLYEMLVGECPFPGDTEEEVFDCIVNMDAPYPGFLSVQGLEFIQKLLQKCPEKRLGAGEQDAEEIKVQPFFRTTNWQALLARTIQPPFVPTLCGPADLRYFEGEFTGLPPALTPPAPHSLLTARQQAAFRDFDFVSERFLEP

[6] = biological target: Mitogen-activated protein kinase 10 (Homo sapiens, UniProt P53779); assay: Selectivity interaction (Kinase panel (DSF assay)) EUB0001559a MAPK10
[7] = biological target: Ephrin type-A receptor 5 (Homo sapiens) (UniProt P54756); assay: Selectivity interaction (KinomeScan (DiscoverX)) EUB0001049a EPHA5; conditions: at 1 µM
Chain of Ephrin type-A receptor 5 (Homo sapiens) (P54756 whole entry): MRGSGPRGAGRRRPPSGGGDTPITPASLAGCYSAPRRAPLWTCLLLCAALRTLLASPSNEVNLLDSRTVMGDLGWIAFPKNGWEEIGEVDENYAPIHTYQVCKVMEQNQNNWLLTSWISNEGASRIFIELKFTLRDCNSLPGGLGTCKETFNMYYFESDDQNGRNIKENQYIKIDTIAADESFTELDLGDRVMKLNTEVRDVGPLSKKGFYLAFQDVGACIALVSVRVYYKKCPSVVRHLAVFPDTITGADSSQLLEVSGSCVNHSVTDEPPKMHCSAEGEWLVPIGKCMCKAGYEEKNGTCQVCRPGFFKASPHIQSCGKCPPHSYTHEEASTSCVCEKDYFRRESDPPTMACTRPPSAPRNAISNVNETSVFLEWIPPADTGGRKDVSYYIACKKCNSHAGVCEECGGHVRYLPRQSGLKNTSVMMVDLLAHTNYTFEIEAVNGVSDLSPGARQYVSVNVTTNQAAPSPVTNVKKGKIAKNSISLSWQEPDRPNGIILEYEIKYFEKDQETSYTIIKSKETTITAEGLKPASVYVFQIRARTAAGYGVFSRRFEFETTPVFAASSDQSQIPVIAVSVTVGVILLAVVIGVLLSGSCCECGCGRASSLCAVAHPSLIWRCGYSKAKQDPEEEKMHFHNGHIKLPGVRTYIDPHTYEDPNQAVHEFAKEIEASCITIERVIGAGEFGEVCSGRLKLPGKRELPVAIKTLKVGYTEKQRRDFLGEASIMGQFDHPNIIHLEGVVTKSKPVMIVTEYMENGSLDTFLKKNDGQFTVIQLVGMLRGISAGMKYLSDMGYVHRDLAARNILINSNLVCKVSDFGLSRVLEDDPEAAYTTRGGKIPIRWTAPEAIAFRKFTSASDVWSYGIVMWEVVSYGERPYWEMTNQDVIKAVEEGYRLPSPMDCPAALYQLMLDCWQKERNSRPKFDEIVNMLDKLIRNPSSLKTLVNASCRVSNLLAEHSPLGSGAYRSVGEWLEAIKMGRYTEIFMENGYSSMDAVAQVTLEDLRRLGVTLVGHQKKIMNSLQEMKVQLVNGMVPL

[8] = biological target: RAC-beta serine/threonine-protein kinase (Homo sapiens) (UniProt P31751); assay: Selectivity interaction (KinomeScan (DiscoverX)) EUB0000655a AKT2; conditions: at 10 µM
Chain of RAC-beta serine/threonine-protein kinase (Homo sapiens) (P31751 whole entry): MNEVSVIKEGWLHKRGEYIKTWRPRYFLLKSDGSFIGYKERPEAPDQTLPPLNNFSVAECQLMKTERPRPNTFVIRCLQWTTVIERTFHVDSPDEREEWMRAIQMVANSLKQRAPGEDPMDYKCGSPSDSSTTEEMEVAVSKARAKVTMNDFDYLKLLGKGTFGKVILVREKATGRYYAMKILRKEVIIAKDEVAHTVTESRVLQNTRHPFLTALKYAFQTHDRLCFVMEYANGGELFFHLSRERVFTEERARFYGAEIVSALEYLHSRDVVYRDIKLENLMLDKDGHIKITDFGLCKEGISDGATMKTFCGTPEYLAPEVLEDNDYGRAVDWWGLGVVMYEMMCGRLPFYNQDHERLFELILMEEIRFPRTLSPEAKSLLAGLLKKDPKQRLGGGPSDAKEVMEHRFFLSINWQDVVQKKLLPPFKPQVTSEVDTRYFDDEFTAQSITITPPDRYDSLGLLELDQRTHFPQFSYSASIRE

[9] = biological target: Serine/threonine-protein kinase SBK1 (Homo sapiens) (UniProt Q52WX2); assay: Selectivity interaction (KinomeScan (DiscoverX)) EUB0000655a SBK1; conditions: at 10 µM
[10] = biological target: Inhibitor of nuclear factor kappa-B kinase subunit alpha (Homo sapiens, UniProt O15111); assay: Selectivity interaction (Kinase panel (Enzyme activity assay)) EUB0000612a CHUK
[11] = biological target: Ribosomal protein S6 kinase alpha-6 (Homo sapiens, UniProt Q9UK32); assay: Selectivity interaction (KinomeScan (DiscoverX)) EUB0000045b RPS6KA6; conditions: at 1 µM
[12] = biological target: Serine/threonine-protein kinase WNK4 (Homo sapiens) (UniProt Q96J92); assay: Selectivity interaction (KinomeScan (DiscoverX)) EUB0001079a WNK4; conditions: at 1 µM
Chain of Serine/threonine-protein kinase WNK4 (Homo sapiens) (Q96J92 whole entry): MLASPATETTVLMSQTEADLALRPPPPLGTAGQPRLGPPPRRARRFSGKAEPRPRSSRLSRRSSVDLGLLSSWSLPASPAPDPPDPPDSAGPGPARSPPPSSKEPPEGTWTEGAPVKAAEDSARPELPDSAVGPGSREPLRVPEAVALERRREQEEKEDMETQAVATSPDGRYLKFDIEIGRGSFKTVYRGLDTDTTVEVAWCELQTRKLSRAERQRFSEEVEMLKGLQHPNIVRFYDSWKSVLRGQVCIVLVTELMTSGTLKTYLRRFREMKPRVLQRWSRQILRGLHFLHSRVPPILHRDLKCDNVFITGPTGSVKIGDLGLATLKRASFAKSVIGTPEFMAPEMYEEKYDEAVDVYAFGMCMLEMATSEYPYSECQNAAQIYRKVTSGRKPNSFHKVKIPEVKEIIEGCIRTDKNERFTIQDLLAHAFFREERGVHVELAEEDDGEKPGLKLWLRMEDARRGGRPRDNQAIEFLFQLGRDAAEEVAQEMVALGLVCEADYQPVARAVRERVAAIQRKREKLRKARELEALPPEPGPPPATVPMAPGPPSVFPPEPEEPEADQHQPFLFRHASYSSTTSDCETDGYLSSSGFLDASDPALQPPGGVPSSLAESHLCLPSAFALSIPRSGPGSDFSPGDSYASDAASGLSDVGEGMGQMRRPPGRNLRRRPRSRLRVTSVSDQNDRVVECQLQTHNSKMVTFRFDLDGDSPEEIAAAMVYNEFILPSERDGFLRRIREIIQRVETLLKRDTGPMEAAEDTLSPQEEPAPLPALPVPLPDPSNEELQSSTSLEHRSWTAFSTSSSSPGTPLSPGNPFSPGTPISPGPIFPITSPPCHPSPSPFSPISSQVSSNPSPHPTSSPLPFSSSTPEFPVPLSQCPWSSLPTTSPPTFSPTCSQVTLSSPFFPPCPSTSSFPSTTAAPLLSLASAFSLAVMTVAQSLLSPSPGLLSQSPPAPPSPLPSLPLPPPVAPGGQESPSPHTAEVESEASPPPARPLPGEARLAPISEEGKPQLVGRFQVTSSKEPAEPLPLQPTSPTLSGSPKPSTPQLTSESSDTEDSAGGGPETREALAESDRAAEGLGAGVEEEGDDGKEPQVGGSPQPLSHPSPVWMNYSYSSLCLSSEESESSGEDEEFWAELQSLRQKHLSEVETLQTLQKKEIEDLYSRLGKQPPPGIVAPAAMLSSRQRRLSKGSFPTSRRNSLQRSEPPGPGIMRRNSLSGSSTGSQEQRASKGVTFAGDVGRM

[13] = biological target: Leukocyte tyrosine kinase receptor (Homo sapiens, UniProt P29376); assay: Selectivity interaction (KinomeScan (DiscoverX)) EUB0000229b LTK; conditions: at 10 µM
[14] = biological target: Dual specificity mitogen-activated protein kinase kinase 1 (Homo sapiens, UniProt Q02750); assay: Selectivity interaction (KinomeScan (DiscoverX)) EUB0000229b MAP2K1; conditions: at 10 µM
Chain of Dual specificity mitogen-activated protein kinase kinase 1 (Q02750 whole entry): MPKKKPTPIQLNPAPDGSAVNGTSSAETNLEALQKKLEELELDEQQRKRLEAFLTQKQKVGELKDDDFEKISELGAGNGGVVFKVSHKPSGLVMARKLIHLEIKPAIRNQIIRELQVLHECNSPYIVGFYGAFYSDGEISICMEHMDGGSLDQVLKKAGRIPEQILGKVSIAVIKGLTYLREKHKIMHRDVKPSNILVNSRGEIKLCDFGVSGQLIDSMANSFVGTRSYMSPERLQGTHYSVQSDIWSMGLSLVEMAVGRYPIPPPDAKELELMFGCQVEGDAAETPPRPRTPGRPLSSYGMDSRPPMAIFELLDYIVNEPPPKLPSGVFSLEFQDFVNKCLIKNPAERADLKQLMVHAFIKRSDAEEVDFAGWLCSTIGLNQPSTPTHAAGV

[15] = biological target: T1, Inhibitor of nuclear factor kappa-B kinase subunit epsilon (Homo sapiens) (UniProt Q14164); assay: Selectivity interaction (KinomeScan (DiscoverX)) EUB0000092b IKBKE; conditions: at 10 µM
T1 sequence (whole entry): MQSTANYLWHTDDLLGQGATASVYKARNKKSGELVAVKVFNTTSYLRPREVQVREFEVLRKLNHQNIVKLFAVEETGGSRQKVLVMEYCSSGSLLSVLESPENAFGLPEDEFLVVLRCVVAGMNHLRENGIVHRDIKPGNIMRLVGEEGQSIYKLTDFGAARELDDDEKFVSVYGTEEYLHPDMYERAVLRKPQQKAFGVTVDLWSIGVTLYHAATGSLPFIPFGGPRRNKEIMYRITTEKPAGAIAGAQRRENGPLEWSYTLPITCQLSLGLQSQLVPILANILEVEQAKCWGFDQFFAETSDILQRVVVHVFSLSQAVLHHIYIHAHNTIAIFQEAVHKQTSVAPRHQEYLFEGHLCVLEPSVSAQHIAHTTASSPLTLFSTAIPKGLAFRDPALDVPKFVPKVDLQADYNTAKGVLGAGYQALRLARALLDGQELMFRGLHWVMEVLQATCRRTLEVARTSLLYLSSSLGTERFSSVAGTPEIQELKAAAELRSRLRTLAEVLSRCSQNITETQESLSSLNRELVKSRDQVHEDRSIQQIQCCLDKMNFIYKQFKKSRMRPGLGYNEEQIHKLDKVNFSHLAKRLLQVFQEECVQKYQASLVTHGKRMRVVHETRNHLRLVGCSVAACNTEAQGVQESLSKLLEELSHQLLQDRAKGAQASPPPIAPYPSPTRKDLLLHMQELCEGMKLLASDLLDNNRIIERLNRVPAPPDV

[16] = biological target: T2, Serine/threonine-protein kinase Nek11 (Homo sapiens) (UniProt Q8NG66); assay: Selectivity interaction (KinomeScan (DiscoverX)) EUB0000092b NEK11; conditions: at 10 µM
T2 sequence (whole entry): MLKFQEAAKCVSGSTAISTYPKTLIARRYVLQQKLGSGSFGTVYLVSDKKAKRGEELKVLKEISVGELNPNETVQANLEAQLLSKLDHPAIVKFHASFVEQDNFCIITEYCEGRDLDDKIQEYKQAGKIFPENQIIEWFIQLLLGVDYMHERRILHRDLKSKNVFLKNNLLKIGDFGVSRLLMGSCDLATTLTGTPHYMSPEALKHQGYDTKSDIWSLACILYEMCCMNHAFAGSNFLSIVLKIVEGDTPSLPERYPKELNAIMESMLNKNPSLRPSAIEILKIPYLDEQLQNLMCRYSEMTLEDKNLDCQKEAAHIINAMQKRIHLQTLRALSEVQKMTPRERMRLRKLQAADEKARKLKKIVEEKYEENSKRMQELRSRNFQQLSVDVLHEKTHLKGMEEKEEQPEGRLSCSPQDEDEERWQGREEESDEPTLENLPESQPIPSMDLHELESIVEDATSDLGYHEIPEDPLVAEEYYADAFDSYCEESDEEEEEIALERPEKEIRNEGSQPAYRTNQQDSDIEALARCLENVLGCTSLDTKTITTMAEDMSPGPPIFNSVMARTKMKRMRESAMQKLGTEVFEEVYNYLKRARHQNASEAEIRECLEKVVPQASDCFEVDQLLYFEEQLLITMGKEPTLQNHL

[17] = biological target: Mitogen-activated protein kinase 1 (Homo sapiens, UniProt P28482); conditions: at 10 µM
[18] = biological target: Tyrosine-protein kinase HCK (Homo sapiens) (UniProt P08631); assay: Selectivity interaction (KinomeScan (DiscoverX)) EUB0001619a HCK; conditions: at 1 µM
[19] = biological target: Cyclin-dependent kinase 17 (Homo sapiens) (UniProt Q00537); assay: Selectivity interaction (KinomeScan (DiscoverX)) EUB0001619a CDK17; conditions: at 1 µM
[20] = biological target: Mitogen-activated protein kinase kinase kinase kinase 5 (Homo sapiens) (UniProt Q9Y4K4); assay: Selectivity interaction (ActivX KiNativ screen (ex vivo kinase selectivity in human PBMCs)) EUB0001619a MAP4K5; type: cell-based; conditions: PBMC, at 1 µM

% of control [1]: 116%
Structure (SMILES): CC(=O)c1cc(-c2ccccc2OCC2CC2)c2ncccn12

% of inhibition [2]: 17%
% of inhibition [3]: 22%
Structure (SMILES): Cc1ccc(-c2ccc3c(ccc4sc5c(c43)NC[C@@H](C)NC5=O)n2)cn1

% of inhibition [4]: -35.3%
Structure (SMILES): CC[C@@H]1[C@H](F)C(=O)N[C@@H]1COc1nccc2cc(C(N)=O)c(OC)cc12 [ZIMLOVISERTIB]

% of control ([5]; at 1 µM): 79%
% of control ([5]; at 5 µM): 54%
Structure (SMILES): C=CC(=O)Nc1cccc(C(=O)Nc2ccc(Nc3cc(-c4[nH]c(SC)nc4C)ccn3)cc2)c1

dTM [6]: -0.8 K
Structure (SMILES): CN(C(=O)c1cnn2cccnc12)c1cc2c(cc1N1CCOCC1)C(=O)N(C[C@@H](F)C(C)(C)O)C2

Structure (SMILES): COc1cc(Nc2nc(C)cc(-c3cnn4nc(OC)ccc34)n2)cc(C(F)(F)F)c1
% of control [7]: 96%

Structure (SMILES): CN(C)CCOc1ccc(-c2nc(-c3ccncc3)c(-c3ccc4c(c3)CC/C4=N\O)[nH]2)cc1
% of control [8]: 100%
% of control [9]: 83%

IC50 [10]: > 10 µM
Structure (SMILES): CCc1cccc(CC)c1NC(=O)c1nn(C)c2c1CCc1cnc(Nc3ccc(C(=O)NC4CCN(C)CC4)cc3OC(F)(F)F)nc1-2

Structure (SMILES): C=CC(=O)Nc1cc(-n2c(=O)ccc3cnc4ccc(-c5ccc(NS(C)(=O)=O)cc5)cc4c32)ccc1C
% of control [11]: 56%

Structure (SMILES): Nc1cnc(N2CCc3cc(S(=O)(=O)Nc4c(F)cc(Cl)cc4F)cc(N4CCCC4=O)c32)nc1 [TP-020n]
% of control [12]: 100%

Structure (SMILES): COc1cc(N(C)c2ccnc3ccc(C(F)(F)F)cc23)cc(OC)c1OC
% binding [13]: 96%
% binding [14]: 68%

Structure (SMILES): CCC(=O)N1CCN(c2ccc(-n3c(=O)ccc4cnc5ccc(-c6cnc7ccccc7c6)cc5c43)cc2C(F)(F)F)CC1
% of control [15]: 87%
% of control [16]: 65%

Structure (SMILES): Cc1cc([C@@H](C)Nc2ccccc2C(=O)O)c2nc(N3CCOCC3)cc(=O)n2c1 [AZD-6482]
% of control [17]: 100%

Structure (SMILES): N#Cc1cccc(-c2c[nH]c3ncnc(N4CCOCC4)c23)c1
% of control [18]: 100%
% of control [19]: 100%
% of inhibition [20]: 16%
